Laboratory results as given in patent EP0059645A1, “Method and kit for identification of beta-lactamases” (NATIONAL RESEARCH DEVELOPMENT CORPORATION, priority 1981, dated 1982).
Marks after values point to notes of the source that are not given here.

How the values were obtained:
PSE-4 [1] = biological target: T1, PSE-4 (Pseudomonas aeruginosa, UniProt P16897); test: Competitive assay with nitrocefin (RSAI); format: biochemical, Ps.aerug. 1559E; design: Normally, therefore, the beta-lactamase has to be extracted from the cells for the purpose of the present invention; endogenous in cells
OXA-3 [2] = biological target: T2, OXA-3 (Pseudomonas aeruginosa, UniProt Q51429); test: Competitive assay with nitrocefin (RSAI); format: biochemical, E. coli R57B; design: Normally, therefore, the beta-lactamase has to be extracted from the cells for the purpose of the present invention; endogenous in cells
PSE-3 [3] = test: Competitive assay with nitrocefin (RSAI); format: biochemical, Ps.aerug. 1920E
PSE-2 [4] = biological target: T3, PSE-2 (Pseudomonas aeruginosa, UniProt P14489); test: Competitive assay with nitrocefin (RSAI); format: biochemical, Ps.aerug. 1973E; design: Normally, therefore, the beta-lactamase has to be extracted from the cells for the purpose of the present invention; endogenous in cells
TEM-2 beta-lactamase = TEM-2 beta-lactamase (Escherichia coli, UniProt P62593, Q37K); format: biochemical, E. coli C9 RP4; conditions: from kinetics of nitrocefin cleavage
[5] = biological target: T4, Chromosomal, constitutive beta-lactamase enzyme (Enterobacter cloacae, UniProt P05364); test: Competitive assay with nitrocefin (RSAI); format: biochemical, E. cloacae
T4 construct: Normally, therefore, the beta-lactamase has to be extracted from the cells for the purpose of the present invention; endogenous in cells

K1073 = test: Competitive assay with nitrocefin (RSAI); format: biochemical, Klebsiella 1073
Description: (§1) It is convenient to express the results in terms of a Relative Substrate Affinity Index (RSAI) value.
(§2) RSAI = Concentration of competing substrate which gives 50% inhibition of ring-opening hydrolysis of the chromogenic substrate
(§3) Concentration of chromogenic substrate in the assay A high RSAI value therefore indicates a low affinity of the beta-lactamase for that competing substrate, and therefore predicts resistance of a beta-lactam competing substrate to hydrolysis by the beta-lactamase. Low RSAI values, in contrast, predict sensitivity to hydrolysis by a beta-lactamase.
(§4) Beta-lactam antibiotics which bind to the TEM-2 enzyme compete with nitrocefin in the assay. […] . This concentration of ampicillin is a direct estimate of the relative affinity of the TEM-2 enzyme for ampicillin. […] . The RSAI value was therefore 1.3.

PSE-1 [6] = biological target: T5, PSE-1 (Pseudomonas aeruginosa, UniProt Q03170); test: Competitive assay with nitrocefin (RSAI); format: biochemical, Ps.aerug. 1937E; design: Normally, therefore, the beta-lactamase has to be extracted from the cells for the purpose of the present invention; endogenous in cells
SHV-1 [7] = biological target: T6, SHV-1 (Escherichia coli, UniProt P0AD63); test: Competitive assay with nitrocefin (RSAI); format: biochemical, E. coli 2008E; design: the beta-lactamase has to be extracted from the cells for the purpose of the present invention; made in house; host or cells: E. coli 2008E (crude cell extract)
OXA-1 [8] = biological target: T7, OXA-1 (Escherichia coli, UniProt P13661); test: Competitive assay with nitrocefin (RSAI); format: biochemical, E. coli 1527E; design: the beta-lactamase has to be extracted from the cells for the purpose of the present invention; made in house; host or cells: E. coli 1527E according to the earlier reading (crude cell extract)
[9] = biological target: T8, Chromosomal, induced beta-lactamase enzyme (Pseudomonas aeruginosa, UniProt P24735); test: Competitive assay with nitrocefin (RSAI); format: biochemical, Ps.aerug. 1937E + ampicillin
T8 construct: Normally, therefore, the beta-lactamase has to be extracted from the cells for the purpose of the present invention; endogenous in cells; host or cells: Pseudomonas aeruginosa 1937E grown with ampicillin

TEM-1 [10] = biological target: T9, TEM-1 (Escherichia coli, UniProt P62593); test: Competitive assay with nitrocefin (RSAI); format: biochemical, E. coli 2136E; design: the beta-lactamase has to be extracted from the cells for the purpose of the present invention; made in house; host or cells: E. coli 2136E (plasmid-bearing strain; crude cell extract)
K17 = test: Competitive assay with nitrocefin (RSAI); format: biochemical, Klebsiella 17
Description: as §1, §2, §3, §4

TEM-2 [11] = biological target: T10, TEM-2 (Escherichia coli, UniProt P62593, Q37K); test: Competitive assay with nitrocefin (RSAI); format: biochemical, E. coli 1725E
Description: as §1, §2, §3, §4

OXA-2 [12] = biological target: T11, OXA-2 (Escherichia coli, UniProt P0A1V9); test: Competitive assay with nitrocefin (RSAI); format: biochemical, E. coli R46; design: the beta-lactamase has to be extracted from the cells for the purpose of the present invention; made in house; host or cells: E. coli carrying R46 according to the earlier reading (crude cell extract)
K10317 = test: Competitive assay with nitrocefin (RSAI); format: biochemical, K.aerog. 10317
Description: as §1, §2, §3, §4

[13] = biological target: Chromosomal, hyper-induced beta-lactamase enzyme (Escherichia coli, UniProt P00811); test: Competitive assay with nitrocefin (RSAI); format: biochemical, E. coli SNU35; design: Normally, therefore, the beta-lactamase has to be extracted from the cells for the purpose of the present invention; endogenous in cells; host or cells: E. coli SNU 35 (artificially produced strain)
HMS-1 [14] = test: Competitive assay with nitrocefin (RSAI); format: biochemical, E. coli 1946
Ps +AMP (Chromosomal) = Ps +AMP (Chromosomal) (Pseudomonas aeruginosa, UniProt P24735); test: 6-well visual test with nitrocefin; conditions: 3 minutes, room temperature
OXA-3 [15] = biological target: T2, OXA-3; test: 6-well visual test with nitrocefin; conditions: 3 minutes, room temperature
PSE-2 [16] = biological target: T3, PSE-2; test: 6-well visual test with nitrocefin; conditions: 3 minutes, room temperature
SHV-1 [17] = biological target: T6, SHV-1; test: 6-well visual test with nitrocefin; conditions: 3 minutes, room temperature
PSE-4 [18] = biological target: T1, PSE-4; test: 6-well visual test with nitrocefin; conditions: 3 minutes, room temperature
PSE-3 [19] = test: 6-well visual test with nitrocefin; conditions: 3 minutes, room temperature
OXA-1 [20] = biological target: T7, OXA-1; test: 6-well visual test with nitrocefin; conditions: 3 minutes, room temperature
HMS-1 [21] = test: 6-well visual test with nitrocefin; conditions: 3 minutes, room temperature
TEM-2 [22] = biological target: T10, TEM-2; test: 6-well visual test with nitrocefin; conditions: 3 minutes, room temperature
OXA-2 [23] = biological target: T11, OXA-2; test: 6-well visual test with nitrocefin; conditions: 3 minutes, room temperature
E. cloacae = E. cloacae (Enterobacter cloacae, UniProt P05364); test: 6-well visual test with nitrocefin; conditions: 3 minutes, room temperature
PSE-1 [24] = biological target: T5, PSE-1; test: 6-well visual test with nitrocefin; conditions: 3 minutes, room temperature
TEM-1 [25] = biological target: T9, TEM-1; test: 6-well visual test with nitrocefin; conditions: 3 minutes, room temperature
[26] = well B: Cefotaxime 100:1 to nitrocefin
[27] = well C: Cefamandole 1:1 to nitrocefin

SMILES | RSAI (PSE-4 [1]) | RSAI (OXA-3 [2]) | RSAI (PSE-3 [3]) | RSAI (PSE-2 [4]) | RSAI [5] | RSAI (K1073) | RSAI (PSE-1 [6]) | RSAI (SHV-1 [7]) | RSAI (OXA-1 [8]) | RSAI [9] | RSAI (TEM-1 [10]) | RSAI (K17) | RSAI (TEM-2 [11]) | RSAI (OXA-2 [12]) | RSAI (K10317) | RSAI [13] | RSAI (HMS-1 [14]) | also measured
Cc1onc(-c2ccccc2Cl)c1C(=O)N[C@@H]1C(=O)N2[C@@H]1SC(C)(C)[C@@H]2C(=O)O [Cloxacillin] | 3.3 | 0.01 | 0.24 | 4.5 | 0.00004 | 4* | 2 | 2 | 0.6 | 0.00017 | 0.75 | 14 | 0.5 | 30 | 3.7* | 0.0000016* | 0.02 | nature of the binding to the enzyme (TEM-2 beta-lactamase): does not undergo irreversible binding
CO/N=C(\C(=O)N[C@@H]1C(=O)N2C(C(=O)O)=C(COC(C)=O)CS[C@H]12)c1csc(N)n1 [Cefotaxime] | 50 | 15 | 100 | 9.6 | 0.0006 | 330 | 70 | 400 | 9 | 0.004 | 400 | 60 | 600 | 12 | 320 | 0.004 | 11 | Score in 6-well visual test (Ps +AMP (Chromosomal); [26]): -; Score in 6-well visual test (OXA-3 [15]; [26]): -; Score in 6-well visual test (PSE-2 [16]; [26]): -; Score in 6-well visual test (SHV-1 [17]; [26]): ++; Score in 6-well visual test (PSE-4 [18]; [26]): +; Score in 6-well visual test (PSE-3 [19]; [26]): +; Score in 6-well visual test (OXA-1 [20]; [26]): -; Score in 6-well visual test (HMS-1 [21]; [26]): -; Score in 6-well visual test (TEM-2 [22]; [26]): ++; Score in 6-well visual test (OXA-2 [23]; [26]): -; Score in 6-well visual test (E. cloacae; [26]): -; Score in 6-well visual test (PSE-1 [24]; [26]): +; Score in 6-well visual test (TEM-1 [25]; [26]): ++
Cn1nnnc1SCC1=C(C(=O)O)N2C(=O)[C@@H](NC(=O)[C@H](O)c3ccccc3)[C@H]2SC1 [Cefaman-dole, Cefamandole] | 9 | 0.75 | 0.006 | 0.06 | 0.03 | 3.9 | 6.9 | 6.6 | 1.5 | 5 | 11 | 1.8 | 11 | 1.7 | 5 | 0.12* | 0.5 | Score in 6-well visual test (Ps +AMP (Chromosomal); [27]): +; Score in 6-well visual test (OXA-3 [15]; [27]): +; Score in 6-well visual test (PSE-2 [16]; [27]): -; Score in 6-well visual test (SHV-1 [17]; [27]): ++; Score in 6-well visual test (PSE-4 [18]; [27]): ++; Score in 6-well visual test (PSE-3 [19]; [27]): -; Score in 6-well visual test (OXA-1 [20]; [27]): ++; Score in 6-well visual test (HMS-1 [21]; [27]): +; Score in 6-well visual test (TEM-2 [22]; [27]): ++; Score in 6-well visual test (OXA-2 [23]; [27]): +; Score in 6-well visual test (E. cloacae; [27]): -; Score in 6-well visual test (PSE-1 [24]; [27]): ++; Score in 6-well visual test (TEM-1 [25]; [27]): ++
